# Test results reported in US20250206714A1, “COMPOSITIONS AND METHODS FOR TREATMENT OF INFLAMMATORY DISEASES” (Invea Therapeutics, Inc., priority 2022, published 2025).
# Key:
# CYP 3A4 = CYP 3A4 (Homo sapiens, UniProt P08684); experiment: Metabolic stability in human liver microsomes with CYP 3A4 inhibitor Ketoconazole; settings: 1 μM + Ketoconazole (20 μM)
# THP-1 cells = experiment: Cell viability by propidium iodide staining; format: cell-based; settings: at 10 μM; with respect to DMSO control
# Description: (§1) Human monocytic THP-1 cells were treated with phorbol 12-myristate 13 acetate (PMA) (100 nM) overnight to differentiate monocytic cells into macrophages. Then, after 24 hours of rest, the differentiated cells were incubated with test compounds for 12 hours at concentrations 0.01, 0.1, 1, 10, 30, and 50 μM. Cells were then washed once with PBS and primed with E. coli LPS (0.1 μg/ml) for 4 h followed by stimulation with ATP (5 μM) for an additional 30 min. The cell culture supernatants were then collected and OD values for IL-1β levels were measured by ELISA. The standard curve (OD VS concentration) for IL-1β was also plotted and used to determine the IL-1β concentration for the OD values. The percentage of inhibition of IL-1β was calculated using the formula: […]
# (§2) The percentage IL-1β inhibition at different compound concentrations were plotted in a sigmoid curve and IC50 values were interpolated in Graphpad Prism. Cell death was evaluated by propidium iodide staining and OD was measured at 490 nm. Cell viability was estimated with respect to DMSO control.
# in vitro = settings: for % rem @ 5 min / % rem @ 15 min / % rem @ 30 min / % rem @ 45 min: 1 µM; for % rem @ 5 min / % rem @ 15 min / % rem @ 30 min / % rem @ 45 min / half-life at 1 µM / microsomal CLint at 1 μM: pH 7.4; for half-life at 1 µM / microsomal CLint at 1 μM: microsomes
# Description: All the tubes were pre-incubated at 37 t 1° C. for 5 min in a shaking water bath. Tubes of NADPH solution (10 mM) were similarly pre-incubated in similar conditions. After pre-incubation, 20 μL NADPH solution (10 mM) was added to the T0, T5, T15, T30, and T45 tubes, and 20 μL of buffer was added to the TControl tube which makes the final concentration to 1 μM respectively. T0 was immediately quenched with 200 μL of quenching solution containing warfarin as internal standard (IS). Similarly, at the end of the incubation period (5, 15, 30, and 45 minutes) of respective tubes, 200 μL of quenching solution containing warfarin as internal standard (IS) was added to each tube to stop the reaction. Resulting samples were centrifuged at 3220 g (relative centrifugal force) for 20 min. Supernatant (200 μL) from each reaction tube was taken for LC-MS/MS analysis.
# IL-1β = experiment: In vitro inhibition of production of IL-1β in PMA-differentiated THP-1 cells (LPS + ATP, ELISA); format: cell-based, Human; settings: THP-1 derived macrophages
# Description: The procedures detailed here can be utilized for testing all compounds of the disclosure.
# as §1, §2
# CYP 3A4, sequence (P08684 whole entry): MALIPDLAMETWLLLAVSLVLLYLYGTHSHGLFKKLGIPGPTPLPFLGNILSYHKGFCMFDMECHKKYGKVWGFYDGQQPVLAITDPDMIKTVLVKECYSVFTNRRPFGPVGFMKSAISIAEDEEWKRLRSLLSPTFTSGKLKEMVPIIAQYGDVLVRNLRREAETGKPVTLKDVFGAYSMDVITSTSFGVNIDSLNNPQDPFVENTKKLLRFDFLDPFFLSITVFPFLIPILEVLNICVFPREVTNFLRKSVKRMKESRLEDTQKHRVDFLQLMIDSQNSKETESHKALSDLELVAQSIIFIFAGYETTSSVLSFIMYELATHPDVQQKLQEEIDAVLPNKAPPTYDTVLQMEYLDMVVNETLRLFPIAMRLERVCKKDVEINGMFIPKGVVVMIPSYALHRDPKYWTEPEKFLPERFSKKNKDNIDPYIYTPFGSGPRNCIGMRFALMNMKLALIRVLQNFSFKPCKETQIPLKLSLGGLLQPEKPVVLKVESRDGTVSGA
structure (smiles),measurement,setting,value
"O=C1Nc2ccccc2N(C(=O)CCl)c2ccc(F)cc21 [Compound 6, 5-(2-chloroacetyl)-2-fluoro-5,10-dihydro-11H-dibenzo[b,e][1,4]diazepin-11-one]",% rem @ 5 min,CYP 3A4,81.9%
same,% rem @ 15 min,CYP 3A4,81.5%
same,% rem @ 30 min,CYP 3A4,61.8%
same,% rem @ 45 min,CYP 3A4,52.9%
same,cell viability,THP-1 cells,99%
same,stability / metabolism by liver microsomes (in words),in vitro,medium to highly stability
same,% rem @ 5 min,in vitro; human,93.5%
same,% rem @ 15 min,in vitro; human,92.9%
same,% rem @ 30 min,in vitro; human,91.3%
same,% rem @ 45 min,in vitro; human,67.8%
same,half-life at 1 µM,in vitro; human,1.6 h
same,microsomal CLint at 1 μM,in vitro; human,14.4 µL/min/mg
same,% rem @ 5 min,in vitro; mouse,~100%
same,% rem @ 15 min,in vitro; mouse,~100%
same,% rem @ 30 min,in vitro; mouse,79.3%
same,% rem @ 45 min,in vitro; mouse,59.8%
same,half-life at 1 µM,in vitro; mouse,0.95 h
same,microsomal CLint at 1 μM,in vitro; mouse,24.3 µL/min/mg
same,% rem @ 5 min,in vitro; rat,98.7%
same,% rem @ 15 min,in vitro; rat,83.1%
same,% rem @ 30 min,in vitro; rat,75.3%
same,% rem @ 45 min,in vitro; rat,74.0%
same,half-life at 1 µM,in vitro; rat,1.58 h
same,microsomal CLint at 1 μM,in vitro; rat,14.6 µL/min/mg
same,"IL-1β levels under in vitro conditions (FIG. 3, percentage of cytokine inhibition against concentration)",IL-1β,dose dependent decrease in IL-1β levels
